Test system: chicken mites
Test: Tests for resistance to other miticides
Design: species or system Dermanyssus gallinae
Conditions: for % deaths 1× dose: 1× the dose on the product's instructions; for % deaths 4× dose: 4× the commercial dose; for % deaths 8× dose: 8× the commercial dose; for % deaths 16× dose: 16× the commercial dose; for % deaths 32× Dose: 32× the commercial dose
Text: The doses were chosen at 1 to 32 times the dose commercially given on the products' instructions.

Cc1ccc(/N=C/N(C)/C=N/c2ccc(C)cc2C)c(C)c1 [Amitraz]
% deaths 1× dose: 97.4%
% deaths 1× dose (listed as Amitraze): most efficient miticide
% deaths 4× dose: 98.5%
% deaths 8× dose: 100.00%
% deaths 16× dose: 100.00%
% deaths 32× Dose: 100.0%

CC1(C)C(C=C(Cl)Cl)C1C(=O)OC(C#N)c1cccc(Oc2ccccc2)c1 (stereo not drawn) [Aplhamethrine]
% deaths 1× dose: 48.1%
% deaths 4× dose: 85.2%
% deaths 4× dose (listed as Aphamethrine): 85%
% deaths 8× dose: 97.0%
% deaths 16× dose: 98.9%
% deaths 32× Dose: 99.6%

COP(=O)(OC)SCn1c(=O)oc2cc(Cl)cnc21 [Azamethiphos]
% deaths 1× dose: 30.0%
% deaths 4× dose: 43.3%
% deaths 8× dose: 54.8%
% deaths 16× dose: 100.00%
% deaths 32× Dose: 97.8%

CNC(=O)Oc1cccc2ccccc12 [Carbaryl]
% deaths 1× dose: 19.3%
% deaths 4× dose: 37.8%
% deaths 8× dose: 64.4%
% deaths 16× dose: 91.1%
% deaths 32× Dose: 97.8%

COP(=O)(OC)C(O)C(Cl)(Cl)Cl (stereo not drawn) [Trichlorfon]
% deaths 1× dose: 20.4%
% deaths 4× dose: 39.7%
% deaths 8× dose: 34.4%
% deaths 16× dose: 80.8%
% deaths 32× Dose: 94.4%
